This note sets out measurements from US9725449B2, “Tricyclic compounds as anticancer agents” (BRISTOL-MYERS SQUIBB COMPANY, priority 2015, dated 2017).

A word on the IC50: it is the concentration at which inhibition is half-maximal.

Bounds are passed on as bounds.

In this experiment the target is BRD4 (Homo sapiens, UniProt O60885). The experiment is described as follows: Time resolved fluorescence resonance energy transfer (TR-FRET) binding assay, bromodomain BRD4. Particulars: one of the FRET assays described; read-out: FRET BRD4 IC50. In general terms: In TR-FRET formats the signal depends on donor and acceptor labels being close together.
With `Cc1nnn(C)c1-c1cnc2c3ccc(N4CCN(C(=O)N(C)C)CC4)nc3n([C@H](c3ccccc3F)C3CCOCC3)c2c1` [Example 268, 4-[5-(Dimethyl-1H-1,2,3-triazol-5-yl)-8-[(S)-(2-fluorophenyl)(oxan-4-yl)methyl]-3,8,10-triazatricyclo[7.4.0.0^2,^7]trideca-1(13),2(7),3,5,9,11-hexaen-11-yl]-N,N-dimethylpiperazine-1-carboxamide], the half-inhibitory concentration (IC50) is < 1 nM.
As for `Cc1nnn(C)c1-c1cnc2c3ccc(N4CCS(=O)(=O)C(C)C4)nc3n(C(c3ccccc3)C3CCOCC3)c2c1` [Example 217, 4-[5-(Dimethyl-1H-1,2,3-triazol-5-yl)-8-[(S)-oxan-4-yl(phenyl)methyl]-3,8,10-triazatricyclo[7.4.0.0^2,^7]trideca-1(9),2(7),3,5,10,12-hexaen-11-yl]-2-methyl-1λ^6,4-thiomorpholine-1,1-dione], the 50% inhibitory concentration (IC50) is < 10 nM.
Take `Cc1nnn(C)c1-c1cnc2c3cnccc3n([C@H](c3ccccc3)C3CCOCC3)c2c1` [Example 35, 5-(Dimethyl-1H-1,2,3-triazol-5-yl)-8-[(S)-oxan-4-yl(phenyl)methyl]-3,8,12-triazatricyclo[7.4.0.0^2,^7]trideca-1(13),2(7),3,5,9,11-hexaene]: the concentration for half-maximal inhibition (IC50) is < 10 nM.
As for `Cc1nnn(C)c1-c1cnc2c3ccc(Cl)nc3n([C@@H](c3ccccc3)C3CCOCC3)c2c1` [Example 15, 11-Chloro-5-(dimethyl-1H-1,2,3-triazol-5-yl)-8-[(R)-oxan-4-yl(phenyl)methyl]-3,8,10-triazatricyclo[7.4.0.0^2,^7]trideca-1(9),2(7),3,5,10,12-hexaene], the IC50 is < 1500 nM.
Take `[2H]C([2H])([2H])c1nnn(C)c1-c1cnc2c3c(OCC(F)F)ncc(S(C)(=O)=O)c3n([C@H](c3ccccc3)C3CCOCC3)c2c1` [Example 112, 13-(2,2-Difluoroethoxy)-10-methanesulfonyl-5-[4-(^2H3)methyl-1-methyl-1H-1,2,3-triazol-5-yl]-8-[(S)-oxan-4-yl(phenyl)methyl]-3,8,12-triazatricyclo[7.4.0.0^2,^7]trideca-1(13),2(7),3,5,9,11-hexaene]: the IC50 was < 1 nM.
Turning to `[2H]C([2H])([2H])c1nnn(C)c1-c1cnc2c3c(OCC)ncc(S(C)(=O)=O)c3n([C@H](c3ccccc3F)C3CCOCC3)c2c1` [Example 62, 13-Ethoxy-8-[(S)-(2-fluorophenyl)(oxan-4-yl)methyl]-10-methanesulfonyl-5-[4-(^2H3)methyl-1-methyl-1H-1,2,3-triazol-5-yl]-3,8,12-triazatricyclo[7.4.0.0^2,^7]trideca-1(13),2(7),3,5,9,11-hexaene], the IC50 is < 1 nM.
Consider `[2H]C([2H])([2H])c1nnn(C)c1-c1cnc2c3c(OC)nc(C(C)(C)O)cc3n(C(c3ccccc3)C3CCC(F)(F)CC3)c2c1` (stereo not drawn) [Example 346, 2-{8-[(4,4-Difluorocyclohexyl)(phenyl)methyl]-13-methoxy-5-[4-(^2H3)methyl-1-methyl-1H-1,2,3-triazol-5-yl]-3,8,12-triazatricyclo[7.4.0.0^2,^7]trideca-1(13),2(7),3,5,9,11-hexaen-11-yl}propan-2-ol], for which the half-maximal inhibitory concentration (IC50) is < 1 nM.
The result for `[2H]C([2H])([2H])c1nnn(C)c1-c1cnc2c3ccc(Cl)nc3n([C@H](c3ccccc3F)C3CCOCC3)c2c1` [Example 233, 11-Chloro-8-[(S)-(2-fluorophenyl)(oxan-4-yl)methyl]-5-[4-(^2H3)methyl-1-methyl-1H-1,2,3-triazol-5-yl]-3,8,10-triazatricyclo[7.4.0.0^2,^7]trideca-1(13),2(7),3,5,9,11-hexaene] reads < 10 nM; that for `[2H]C([2H])([2H])c1nnn(C)c1-c1cnc2c3cncc(C(C)(C)O)c3n([C@H](c3ccccc3)C3CCOCC3)c2c1` [Example 291, 2-{5-[4-(^2H3)Methyl-1-methyl-1H-1,2,3-triazol-5-yl]-8-[(S)-oxan-4-yl(phenyl)methyl]-3,8,12-triazatricyclo[7.4.0.0^2,^7]trideca-1(9),2,4,6,10,12-hexaen-10-yl}propan-2-ol], < 1 nM.
